Experimental data from US10111848B2 (National Institute of Health and Medical Research, priority 2012, dated 2018).

System: Subjects exhibiting GLUT1 deficiency
Test: Treatment of subjects exhibiting GLUT1 deficiency with triheptanoin (Example 1)
Format: in vivo
Details: triheptanoin with each meal, about 30-35% of caloric intake, with or without other anti-epileptic drugs
Description: The subjects' seizure frequency is reduced and their neurologic and movement disorder is improved due to the restoration of brain energy metabolism and net biosynthesis.

In the case of `CCCCCCC(=O)OCC(COC(=O)CCCCCC)OC(=O)CCCCCC` [triheptanoin, glyceryl triheptanoate], the “neurologic and movement disorder” value was “improved” and the seizure frequency was “reduced”.
